From patent publication US9738634B2, “Heterocyclic amide compound and herbicide” (SYNGENTA PARTICIPATIONS AG, priority 2013, dated 2017)

Legend:
Format in all cases: in vivo
Conditions in all cases: treatment dosage 320 g/ha
Italian ryegrass [1] = assay: Test Example 4: weedkilling efficacy by foliar treatment; I: Italian ryegrass
Outline: (§1)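 Seeds are spot-sown into sterilized diluvial soil and covered with about 1.5 cm of soil. After 14 days' greenhouse growth at 25 to 30° C, plants are sprayed on stems and leaves with diluted emulsion at the stated g/ha rate, then scored at 3 weeks.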

oval-leafed pondweed [2] = assay: Test Example 2: weedkilling efficacy, growth period weed treatment in the submerged state; C: oval-leafed pondweed
Outline: (§2)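 Seedlings at 1-2 leaves in 4 cm-deep submerged alluvial soil received emulsion formulations on the water surface, dosed per hectare; effects were judged 3 weeks on.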

soybean [3] = assay: Test Example 4: foliar treatment, effect on crop; d: soybean
Outline: as §1

crabgrass [4] = assay: Test Example 3: weedkilling efficacy through soil treatment; D: crabgrass
Outline: (§3)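 Crop and weed responses were judged three weeks after a uniform surface spray of the water-diluted emulsion at the given g/ha rate. Seeds sat beneath about 1.5 cm of sterilized diluvial soil, and boxes stood in a greenhouse at 25 to 30° C.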

wheat [5] = assay: Test Example 4: foliar treatment, effect on crop; e: wheat
Outline: as §1

oval-leafed pondweed [6] = assay: Test Example 1: weedkilling efficacy, preemergent weed treatment in the submerged state; C: oval-leafed pondweed
Outline: (§4)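 Submerged pre-emergence treatment, water-surface application of compound emulsion at g/ha dosages; 4 cm flooded alluvial soil, weeds sown and 2.5-leaf rice transplanted same day. Rated after 3 weeks, greenhouse.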

redroot pigweed [7] = assay: Test Example 3: weedkilling efficacy through soil treatment; L: redroot pigweed
Outline: as §3

green foxtail [8] = assay: Test Example 3: weedkilling efficacy through soil treatment; E: green foxtail
Outline: as §3

wild oat [9] = assay: Test Example 3: weedkilling efficacy through soil treatment; G: wild oat
Outline: as §3

Indian mallow [10] = assay: Test Example 3: weedkilling efficacy through soil treatment; K: Indian mallow
Outline: as §3

Indian mallow [11] = assay: Test Example 4: weedkilling efficacy by foliar treatment; K: Indian mallow
Outline: as §1

directly sown rice [12] = assay: Test Example 3: soil treatment, effect on crop; b: directly sown rice
Outline: as §3

barnyard grass [13] = assay: Test Example 3: weedkilling efficacy through soil treatment; F: barnyard grass
Outline: as §3

birds-eye speedwell [14] = assay: Test Example 4: weedkilling efficacy by foliar treatment; p: birds-eye speedwell
Outline: as §1

crabgrass [15] = assay: Test Example 4: weedkilling efficacy by foliar treatment; D: crabgrass
Outline: as §1

birds-eye speedwell [16] = assay: Test Example 3: weedkilling efficacy through soil treatment; p: birds-eye speedwell
Outline: as §3

chickweed [17] = assay: Test Example 3: weedkilling efficacy through soil treatment; N: chickweed
Outline: as §3

corn [18] = assay: Test Example 4: foliar treatment, effect on crop; c: corn
Outline: as §1

black-grass [19] = assay: Test Example 4: weedkilling efficacy by foliar treatment; H: black-grass
Outline: as §1

Italian ryegrass [20] = assay: Test Example 3: weedkilling efficacy through soil treatment; I: Italian ryegrass
Outline: as §3

fig-leafed goosefoot = assay: Test Example 3: weedkilling efficacy through soil treatment; M: fig-leafed goosefoot
Outline: as §3

bulrush [21] = assay: Test Example 1: weedkilling efficacy, preemergent weed treatment in the submerged state; B: bulrush
Outline: as §4

green foxtail [22] = assay: Test Example 4: weedkilling efficacy by foliar treatment; E: green foxtail
Outline: as §1

rapeseed [23] = assay: Test Example 3: soil treatment, effect on crop; g: rapeseed
Outline: as §3

chickweed [24] = assay: Test Example 4: weedkilling efficacy by foliar treatment; N: chickweed
Outline: as §1

beet [25] = assay: Test Example 3: soil treatment, effect on crop; f: beet
Outline: as §3

common wind-grass [26] = assay: Test Example 4: weedkilling efficacy by foliar treatment; J: common wind-grass
Outline: as §1

directly sown rice [27] = assay: Test Example 4: foliar treatment, effect on crop; b: directly sown rice
Outline: as §1

redroot pigweed [28] = assay: Test Example 4: weedkilling efficacy by foliar treatment; L: redroot pigweed
Outline: as §1

rapeseed [29] = assay: Test Example 4: foliar treatment, effect on crop; g: rapeseed
Outline: as §1

wild oat [30] = assay: Test Example 4: weedkilling efficacy by foliar treatment; G: wild oat
Outline: as §1

transplanted rice = assay: Test Example 1: preemergent weed treatment in the submerged state, effect on crop; a: transplanted rice
Outline: as §4

barnyard grass [31] = assay: Test Example 4: weedkilling efficacy by foliar treatment; F: barnyard grass
Outline: as §1

catchweed [32] = assay: Test Example 4: weedkilling efficacy by foliar treatment; O: catchweed
Outline: as §1

corn [33] = assay: Test Example 3: soil treatment, effect on crop; c: corn
Outline: as §3

beet [34] = assay: Test Example 4: foliar treatment, effect on crop; f: beet
Outline: as §1

bulrush [35] = assay: Test Example 2: weedkilling efficacy, growth period weed treatment in the submerged state; B: bulrush
Outline: as §2

catchweed [36] = assay: Test Example 3: weedkilling efficacy through soil treatment; O: catchweed
Outline: as §3

barnyard grass [37] = assay: Test Example 2: weedkilling efficacy, growth period weed treatment in the submerged state; A: barnyard grass
Outline: as §2

barnyard grass [38] = assay: Test Example 1: weedkilling efficacy, preemergent weed treatment in the submerged state; A: barnyard grass
Outline: as §4

soybean [39] = assay: Test Example 3: soil treatment, effect on crop; d: soybean
Outline: as §3

common wind-grass [40] = assay: Test Example 3: weedkilling efficacy through soil treatment; J: common wind-grass
Outline: as §3

wheat [41] = assay: Test Example 3: soil treatment, effect on crop; e: wheat
Outline: as §3

black-grass [42] = assay: Test Example 3: weedkilling efficacy through soil treatment; H: black-grass
Outline: as §3

COc1cc(Cl)cc(NC(=O)C(C)(C)N2COC(C)=C(c3ccccc3)C2=O)n1 [B-2-46]
I (Italian ryegrass) weedkilling efficacy grade (Italian ryegrass [1]): 4 (weed kill ratio 70% or more, less than 90%) | C (oval-leafed pondweed) weedkilling efficacy grade (oval-leafed pondweed [2]): 5 (weed kill ratio 90% or more, (practically complete withering)) | d (soybean) effect on crop grade (soybean [3]): 0 (weed kill ratio 5% or less (practically no effect)) | D (crabgrass) weedkilling efficacy grade (crabgrass [4]): 5 (weed kill ratio 90% or more, (practically complete withering)) | e (wheat) effect on crop grade (wheat [5]): 0 (weed kill ratio 5% or less (practically no effect)) | C (oval-leafed pondweed) weedkilling efficacy grade (oval-leafed pondweed [6]): 5 (weed kill ratio 90% or more, (practically complete withering)) | L (redroot pigweed) weedkilling efficacy grade (redroot pigweed [7]): 4 (weed kill ratio 70% or more, less than 90%) | E (green foxtail) weedkilling efficacy grade (green foxtail [8]): 5 (weed kill ratio 90% or more, (practically complete withering)) | G (wild oat) weedkilling efficacy grade (wild oat [9]): 3 (weed kill ratio 40% or more, less than 70%) | K (Indian mallow) weedkilling efficacy grade (Indian mallow [10]): 3 (weed kill ratio 40% or more, less than 70%) | K (Indian mallow) weedkilling efficacy grade (Indian mallow [11]): 3 (weed kill ratio 40% or more, less than 70%) | b (directly sown rice) effect on crop grade (directly sown rice [12]): 4 (weed kill ratio 70% or more, less than 90%) | F (barnyard grass) weedkilling efficacy grade (barnyard grass [13]): 5 (weed kill ratio 90% or more, (practically complete withering)) | P (birds-eye speedwell) weedkilling efficacy grade (birds-eye speedwell [14]): 4 (weed kill ratio 70% or more, less than 90%) | D (crabgrass) weedkilling efficacy grade (crabgrass [15]): 4 (weed kill ratio 70% or more, less than 90%) | P (birds-eye speedwell) weedkilling efficacy grade (birds-eye speedwell [16]): 5 (weed kill ratio 90% or more, (practically complete withering)) | N (chickweed) weedkilling efficacy grade (chickweed [17]): 4 (weed kill ratio 70% or more, less than 90%) | c (corn) effect on crop grade (corn [18]): 1 (weed kill ratio 5% or more, less than 20%) | H (black-grass) weedkilling efficacy grade (black-grass [19]): 4 (weed kill ratio 70% or more, less than 90%) | I (Italian ryegrass) weedkilling efficacy grade (Italian ryegrass [20]): 5 (weed kill ratio 90% or more, (practically complete withering)) | M (fig-leafed goosefoot) weedkilling efficacy grade (fig-leafed goosefoot): 4 (weed kill ratio 70% or more, less than 90%) | B (bulrush) weedkilling efficacy grade (bulrush [21]): 5 (weed kill ratio 90% or more, (practically complete withering)) | E (green foxtail) weedkilling efficacy grade (green foxtail [22]): 5 (weed kill ratio 90% or more, (practically complete withering)) | g (rapeseed) effect on crop grade (rapeseed [23]): 4 (weed kill ratio 70% or more, less than 90%) | N (chickweed) weedkilling efficacy grade (chickweed [24]): 2 (weed kill ratio 20% or more, less than 40%) | f (beet) effect on crop grade (beet [25]): 4 (weed kill ratio 70% or more, less than 90%) | J (common wind-grass) weedkilling efficacy grade (common wind-grass [26]): 5 (weed kill ratio 90% or more, (practically complete withering)) | b (directly sown rice) effect on crop grade (directly sown rice [27]): 3 (weed kill ratio 40% or more, less than 70%) | L (redroot pigweed) weedkilling efficacy grade (redroot pigweed [28]): 0 (weed kill ratio 5% or less (practically no effect)) | g (rapeseed) effect on crop grade (rapeseed [29]): 4 (weed kill ratio 70% or more, less than 90%) | G (wild oat) weedkilling efficacy grade (wild oat [30]): 3 (weed kill ratio 40% or more, less than 70%) | a (transplanted rice) effect on crop grade (transplanted rice): 0 (weed kill ratio 5% or less (practically no effect)) | F (barnyard grass) weedkilling efficacy grade (barnyard grass [31]): 4 (weed kill ratio 70% or more, less than 90%) | O (catchweed) weedkilling efficacy grade (catchweed [32]): 4 (weed kill ratio 70% or more, less than 90%) | c (corn) effect on crop grade (corn [33]): 1 (weed kill ratio 5% or more, less than 20%) | f (beet) effect on crop grade (beet [34]): 4 (weed kill ratio 70% or more, less than 90%) | B (bulrush) weedkilling efficacy grade (bulrush [35]): 5 (weed kill ratio 90% or more, (practically complete withering)) | O (catchweed) weedkilling efficacy grade (catchweed [36]): 4 (weed kill ratio 70% or more, less than 90%) | A (barnyard grass) weedkilling efficacy grade (barnyard grass [37]): 5 (weed kill ratio 90% or more, (practically complete withering)) | A (barnyard grass) weedkilling efficacy grade (barnyard grass [38]): 5 (weed kill ratio 90% or more, (practically complete withering)) | d (soybean) effect on crop grade (soybean [39]): 0 (weed kill ratio 5% or less (practically no effect)) | J (common wind-grass) weedkilling efficacy grade (common wind-grass [40]): 5 (weed kill ratio 90% or more, (practically complete withering)) | e (wheat) effect on crop grade (wheat [41]): 0 (weed kill ratio 5% or less (practically no effect)) | H (black-grass) weedkilling efficacy grade (black-grass [42]): 5 (weed kill ratio 90% or more, (practically complete withering))
